Assay results: ChEMBL document CHEMBL3596164, “Inhibitory effects of hydroxylated cinnamoyl esters on lipid absorption and accumulation” (Bioorg Med Chem, 2015)
The source made the active and inactive calls. The rule behind the calls is not given here.

Assays:
3T3-L1 = test: (§1) Antiobesity activity in mouse 3T3L1 cells assessed as suppression of DIM-stimulated lipid accumulation at 4 uM after 7 days by Oil Red O staining method relative to control; format: functional
[1] = molecular target: T1, Pancreatic triacylglycerol lipase (Sus scrofa) (UniProt P00591); test: Inhibition of pig pancreatic lipase at 30 uM after 10 mins by spectrophotometry relative to control
T1 sequence (whole entry): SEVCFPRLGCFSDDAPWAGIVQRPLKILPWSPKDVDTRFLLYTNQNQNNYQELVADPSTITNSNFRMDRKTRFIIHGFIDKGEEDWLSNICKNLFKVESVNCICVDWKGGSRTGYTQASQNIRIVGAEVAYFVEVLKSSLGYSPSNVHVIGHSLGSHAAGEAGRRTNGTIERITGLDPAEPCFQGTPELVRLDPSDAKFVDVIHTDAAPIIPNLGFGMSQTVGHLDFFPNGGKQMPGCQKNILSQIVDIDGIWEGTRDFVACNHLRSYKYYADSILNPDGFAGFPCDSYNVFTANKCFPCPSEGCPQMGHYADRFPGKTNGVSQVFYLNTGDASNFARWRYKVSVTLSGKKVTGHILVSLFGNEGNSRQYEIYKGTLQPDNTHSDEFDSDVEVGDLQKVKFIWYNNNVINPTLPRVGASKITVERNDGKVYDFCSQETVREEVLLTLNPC

[2] = Antiobesity activity in mouse 3T3L1 cells assessed as suppression of DIM-stimulated lipid accumulation at 25 to 50 uM after 7 days by Oil Red O staining method relative to control; format: functional, 3T3-L1
[3] = as §1; format: functional; settings: 3T3-L1, 168 h
[4] = Cytotoxicity against mouse 3T3L1 cells at 1 to 4 uM after 7 days by MTT assay; format: cell-based; settings: 3t3-l1, 168 h
[5] = molecular target: T1, Pancreatic triacylglycerol lipase (Sus scrofa); test: Inhibition of pig pancreatic lipase after 10 mins by spectrophotometry relative to control
Mus musculus [6] = test: Reduction in plasma triglyceride level in corn oil-fed ddY mouse at 30 mg/kg, po after 2 to 6 hrs relative to control; format: functional; set-up: scale not given: the % may be the effect or the level left
Mus musculus [7] = test: Reduction in plasma triglyceride level in corn oil-fed ddY mouse at 150 mg/kg, po after 2 to 6 hrs relative to control; format: functional; set-up: scale not given: the % may be the effect or the level left
Mus musculus [8] = test: Reduction in plasma triglyceride level in corn oil-fed po dosed ddY mouse after 2 to 6 hrs relative to control; format: functional, organism-based

| Structure (SMILES) | inhibition [1] | ED50 [5] [µM] | inhibition [5] | inhibition (3T3-L1) | inhibition (INH) [2] [%] | inhibition at 4 µM [3] [%] | Activity [4] | Activity (Mus musculus [6]) [%] | Activity (Mus musculus [7]) [%] | Activity (Mus musculus [8]) |
| --- | --- | --- | --- | --- | --- | --- | --- | --- | --- | --- |
| O=C(/C=C/c1ccc(O)cc1)OCCCCCCc1ccccc1 | inactive |  |  | inactive |  |  |  |  |  |  |
| O=C(/C=C/c1ccc(O)cc1)OCCc1ccccc1 | inactive |  |  | inactive |  |  |  |  |  |  |
| CCCCCCCCCCOC(=O)/C=C/c1cc(O)c(O)c(O)c1 | 92% | 0.9 | Dose-dependent effect |  |  | 84 |  | 73 | 57 | Dose-dependent effect |
| CCCCCCCCCCOC(=O)/C=C/c1ccc(O)cc1 | inactive |  |  | inactive |  |  |  |  |  |  |
| CCCCCCCCCCOC(=O)/C=C/c1cccc(O)c1 | inactive |  |  | inactive |  |  |  |  |  |  |

Further lines, with some results ahead:

| inhibition [1] | ED50 [5] [µM] | inhibition [5] | Structure (SMILES) | inhibition (3T3-L1) | inhibition (INH) [2] [%] | inhibition at 4 µM [3] [%] | Activity [4] | Activity (Mus musculus [6]) [%] | Activity (Mus musculus [7]) [%] | Activity (Mus musculus [8]) |
| --- | --- | --- | --- | --- | --- | --- | --- | --- | --- | --- |
| 62% | 10 | Dose-dependent effect | O=C(/C=C/c1ccc(O)c(O)c1)OCCc1ccccc1 [CAFFEIC ACID PHENETHYL ESTER] |  | 24 | 11 | Non-toxic |  |  |  |
| 38% | > 40 | Dose-dependent effect | CCCCCCCCCCOC(=O)/C=C/c1ccc(O)c(O)c1 |  |  | 71 | Non-toxic | 78 | 69 | Dose-dependent effect |
| 62% |  |  | CC(C)=CCC/C(C)=C/COC(=O)/C=C/c1ccc(O)c(O)c1 [GERANYL CAFFEATE] |  |  | 20 | Non-toxic |  |  |  |
| 54% | 22 | Dose-dependent effect | O=C(/C=C/c1ccc(O)c(O)c1)OCCCCCCc1ccccc1 |  |  | 46 | Non-toxic |  |  |  |
